# Reference: US20260015315A1, “AMINO LIPID COMPOUND, PREPARATION METHOD THEREFOR, COMPOSITION THEREOF AND APPLICATION THEREOF” (SHENZHEN SHENXIN BIOTECHNOLOGY CO., LTD., priority 2022, published 2026)
# Test system: BALB/c mice
# Assay: In vivo delivery of lipid nanoparticle encapsulating luciferase mRNA (Fluc mRNA), IVIS imaging
# Conditions: Fluc mRNA-LNP (amino lipid:DSPC:CHO-HP:PEG2000-DMG 48:10:40.5:1.5), 75 μL tail vein IV, female BALB/c mice, IVIS 6 hours after injection, whole body
# Procedure: The amino lipid compound of the present disclosure, a helper lipid, a structural lipid, and a PEG-lipid were separately dissolved in absolute ethanol to prepare respective solutions at concentrations of 20 mg/mL, 10 mg/mL, 20 mg/mL, and 25 mg/mL, respectively. The above four solutions were pipetted at a molar ratio of the amino lipid compound: DSPC:CHO-HP:PEG2000-DMG of 48:10:40.5:1.5, and mixed well to prepare an alcohol phase.
# (2) Encapsulation: The water phase and the alcohol phase were injected into a microfluidic chip at a flow rate of water phase:alcohol phase=12 mL/min: 4 mL/min by using a microfluidic preparation instrument (MPE-L2), and encapsulation was carried out at a flow rate of water phase:alcohol phase=9 mL/min: 3 mL/min to obtain mRNA-encapsulating lipid nanoparticle (mRNA-LNP).
# (3) Dialysis: The product of step (2) was loaded in a dialysis bag and placed in a Tris Buffer-8% sucrose solution for replacement to remove ingredients such as residual ethanol, unassembled lipids. Dialysis was conducted for 2 h with magnetic stirring at room temperature and under protection from light (dialysate was replaced every 1 hour).
# (4) The product of step (3) was sterilized by passing through a 0.22 μm microporous membrane, and then packaged.
# Lipid nanoparticle formulations encapsulating Flue mRNA were prepared, with a concentration of Flue mRNA of 0.2 μg/μL, a mass ratio of Flue mRNA to Lipid of 1:10, a particle size of 80-130 nm, and a encapsulation efficiency of 80% or higher.
# • Animal preparation: Female BALB/c mice of 6-8 weeks old were selected and raised in an SPF grade breeding room. Animal testing was conducted in strict accordance with the guidelines of national health institutions and animal ethics requirements.
# In vivo Delivery: prior to injection of the test LNP formulations, the LNP formulations were gently and repeatedly inverted to thoroughly mix the formulation samples. A corresponding amount of the formulation samples were aspirated with a 1 ml insulin syringe, and the LNP formulations were injected by tail vein injection (IV), with 3 mice in duplicate per formulation. Each mouse was injected with 75 μL of the luciferase mRNA (Flue mRNA)-encapsulating lipid nanoparticle formulation prepared in Experimental Example 1.
# 6 hours after injection of LNP formulations, mice were injected with 200 μL D-Luciferin luciferase developing substrate (Catalog No. 122799; Manufacturer: Perkin Elmer). After the substrate was injected, the mice were anesthetized by injection of 200 μl of 2.5% avertin, and the injection time of luciferase developing substrate was recorded.
# The fluorescence expression intensity induced by the lipid nanoparticle encapsulating luciferase mRNA (Flue mRNA) with a representative amino lipid compound is shown in Table 4, with the amino lipid compound 118 as a control.
row,SMILES,Total flux (fluorescence expression intensity)
1,CCCCCCC(CCCCCC)OC(=O)CCCCCCCCC(CCCCCCCCC(=O)OC(CCCCCC)CCCCCC)N(CCCN(C)C)C(=O)CCCOCCCC [compound 129],3.53E+07
2,CCCCCCCOCCCC(=O)N(CCCN(C)C)C(CCCCCCCCC(=O)OC(CCCCCC)CCCCCC)CCCCCCCCC(=O)OC(CCCCCC)CCCCCC [compound 132],2.70E+07
3,CCCCCCC(CCCCCC)OC(=O)CCCCCCCCC(CCCCCCCCC(=O)OC(CCCCCC)CCCCCC)N(CCN(C)C)C(=O)COCCCCC [compound 145],1.21E+07
4,CCCCCCOCC(=O)N(CCN(C)C)C(CCCCCCCCC(=O)OC(CCCCCC)CCCCCC)CCCCCCCCC(=O)OC(CCCCCC)CCCCCC [compound 146],1.37E+07
5,CCCCCCCOCC(=O)N(CCN(C)C)C(CCCCCCCCC(=O)OC(CCCCCC)CCCCCC)CCCCCCCCC(=O)OC(CCCCCC)CCCCCC [compound 147],4.97E+06
6,CCCCCCCCOCC(=O)N(CCN(C)C)C(CCCCCCCCC(=O)OC(CCCCCC)CCCCCC)CCCCCCCCC(=O)OC(CCCCCC)CCCCCC [compound 148],4.45E+06
7,CCCCCCC(CCCCCC)OC(=O)CCCCCCCCC(CCCCCCCCC(=O)OC(CCCCCC)CCCCCC)N(CCN(C)C)C(=O)CCOCCCC [compound 149],5.80E+06
8,CCCCCCC(CCCCCC)OC(=O)CCCCCCCCC(CCCCCCCCC(=O)OC(CCCCCC)CCCCCC)N(CCN(C)C)C(=O)CCOCCCCC [compound 150],2.06E+07
9,CCCCCCOCCC(=O)N(CCN(C)C)C(CCCCCCCCC(=O)OC(CCCCCC)CCCCCC)CCCCCCCCC(=O)OC(CCCCCC)CCCCCC [compound 151],2.29E+07
10,CCCCCCOCCCC(=O)N(CCN(C)C)C(CCCCCCCCC(=O)OC(CCCCCC)CCCCCC)CCCCCCCCC(=O)OC(CCCCCC)CCCCCC [compound 156],3.07E+07

# Same assay, conditions: Fluc mRNA-LNP, 75 μL tail vein IV, female BALB/c mice, IVIS 6 hours after injection, liver
row,SMILES,Liver (fluorescence expression intensity)
1,CCCCCCC(CCCCCC)OC(=O)CCCCCCCCC(CCCCCCCCC(=O)OC(CCCCCC)CCCCCC)N(CCN(C)C)C(=O)CCOCCCCC [compound 150],5.51E+06
2,CCCCCCOCCC(=O)N(CCN(C)C)C(CCCCCCCCC(=O)OC(CCCCCC)CCCCCC)CCCCCCCCC(=O)OC(CCCCCC)CCCCCC [compound 151],8.91E+06
3,CCCCCCOCCCC(=O)N(CCN(C)C)C(CCCCCCCCC(=O)OC(CCCCCC)CCCCCC)CCCCCCCCC(=O)OC(CCCCCC)CCCCCC [compound 156],9.75E+06

# Same assay, conditions: Fluc mRNA-LNP, 75 μL tail vein IV, female BALB/c mice, IVIS 6 hours after injection, spleen
row,SMILES,Spleen (fluorescence expression intensity)
1,CCCCCCC(CCCCCC)OC(=O)CCCCCCCCC(CCCCCCCCC(=O)OC(CCCCCC)CCCCCC)N(CCCN(C)C)C(=O)CCCOCCCC [compound 129],1.33E+07
2,CCCCCCCOCCCC(=O)N(CCCN(C)C)C(CCCCCCCCC(=O)OC(CCCCCC)CCCCCC)CCCCCCCCC(=O)OC(CCCCCC)CCCCCC [compound 132],6.10E+06
3,CCCCCCC(CCCCCC)OC(=O)CCCCCCCCC(CCCCCCCCC(=O)OC(CCCCCC)CCCCCC)N(CCN(C)C)C(=O)COCCCCC [compound 145],1.04E+05
4,CCCCCCOCC(=O)N(CCN(C)C)C(CCCCCCCCC(=O)OC(CCCCCC)CCCCCC)CCCCCCCCC(=O)OC(CCCCCC)CCCCCC [compound 146],6.65E+04
5,CCCCCCCOCC(=O)N(CCN(C)C)C(CCCCCCCCC(=O)OC(CCCCCC)CCCCCC)CCCCCCCCC(=O)OC(CCCCCC)CCCCCC [compound 147],1.13E+05
6,CCCCCCCCOCC(=O)N(CCN(C)C)C(CCCCCCCCC(=O)OC(CCCCCC)CCCCCC)CCCCCCCCC(=O)OC(CCCCCC)CCCCCC [compound 148],1.07E+05
7,CCCCCCC(CCCCCC)OC(=O)CCCCCCCCC(CCCCCCCCC(=O)OC(CCCCCC)CCCCCC)N(CCN(C)C)C(=O)CCOCCCC [compound 149],1.29E+05
8,CCCCCCC(CCCCCC)OC(=O)CCCCCCCCC(CCCCCCCCC(=O)OC(CCCCCC)CCCCCC)N(CCN(C)C)C(=O)CCOCCCCC [compound 150],2.27E+05
9,CCCCCCOCCC(=O)N(CCN(C)C)C(CCCCCCCCC(=O)OC(CCCCCC)CCCCCC)CCCCCCCCC(=O)OC(CCCCCC)CCCCCC [compound 151],1.30E+05
10,CCCCCCOCCCC(=O)N(CCN(C)C)C(CCCCCCCCC(=O)OC(CCCCCC)CCCCCC)CCCCCCCCC(=O)OC(CCCCCC)CCCCCC [compound 156],2.34E+05

# Same assay, conditions: Fluc mRNA-LNP, tail vein IV, BALB/c mice, 6 hours
row,SMILES,(Spleen/Total Flux) * 100%
1,CCCCCCC(CCCCCC)OC(=O)CCCCCCCCC(CCCCCCCCC(=O)OC(CCCCCC)CCCCCC)N(CCCN(C)C)C(=O)CCCOCCCC [compound 129],37.68%
2,CCCCCCCOCCCC(=O)N(CCCN(C)C)C(CCCCCCCCC(=O)OC(CCCCCC)CCCCCC)CCCCCCCCC(=O)OC(CCCCCC)CCCCCC [compound 132],22.59%
3,CCCCCCC(CCCCCC)OC(=O)CCCCCCCCC(CCCCCCCCC(=O)OC(CCCCCC)CCCCCC)N(CCN(C)C)C(=O)COCCCCC [compound 145],0.86%
4,CCCCCCOCC(=O)N(CCN(C)C)C(CCCCCCCCC(=O)OC(CCCCCC)CCCCCC)CCCCCCCCC(=O)OC(CCCCCC)CCCCCC [compound 146],0.49%
5,CCCCCCCOCC(=O)N(CCN(C)C)C(CCCCCCCCC(=O)OC(CCCCCC)CCCCCC)CCCCCCCCC(=O)OC(CCCCCC)CCCCCC [compound 147],2.27%
6,CCCCCCCCOCC(=O)N(CCN(C)C)C(CCCCCCCCC(=O)OC(CCCCCC)CCCCCC)CCCCCCCCC(=O)OC(CCCCCC)CCCCCC [compound 148],2.40%
7,CCCCCCC(CCCCCC)OC(=O)CCCCCCCCC(CCCCCCCCC(=O)OC(CCCCCC)CCCCCC)N(CCN(C)C)C(=O)CCOCCCC [compound 149],2.22%
8,CCCCCCC(CCCCCC)OC(=O)CCCCCCCCC(CCCCCCCCC(=O)OC(CCCCCC)CCCCCC)N(CCN(C)C)C(=O)CCOCCCCC [compound 150],1.10%
9,CCCCCCOCCC(=O)N(CCN(C)C)C(CCCCCCCCC(=O)OC(CCCCCC)CCCCCC)CCCCCCCCC(=O)OC(CCCCCC)CCCCCC [compound 151],0.57%
10,CCCCCCOCCCC(=O)N(CCN(C)C)C(CCCCCCCCC(=O)OC(CCCCCC)CCCCCC)CCCCCCCCC(=O)OC(CCCCCC)CCCCCC [compound 156],0.76%

# Same assay, conditions: Fluc mRNA-LNP, tail vein IV, BALB/c mice, 6 hours; relative to Compound 118
row,SMILES,Multiple of spleen delivery/total delivery (Spleen/Total Flux) to Compound 118
1,CCCCCCC(CCCCCC)OC(=O)CCCCCCCCC(CCCCCCCCC(=O)OC(CCCCCC)CCCCCC)N(CCCN(C)C)C(=O)CCCOCCCC [compound 129],33.05
2,CCCCCCCOCCCC(=O)N(CCCN(C)C)C(CCCCCCCCC(=O)OC(CCCCCC)CCCCCC)CCCCCCCCC(=O)OC(CCCCCC)CCCCCC [compound 132],19.82
3,CCCCCCC(CCCCCC)OC(=O)CCCCCCCCC(CCCCCCCCC(=O)OC(CCCCCC)CCCCCC)N(CCN(C)C)C(=O)COCCCCC [compound 145],0.75
4,CCCCCCOCC(=O)N(CCN(C)C)C(CCCCCCCCC(=O)OC(CCCCCC)CCCCCC)CCCCCCCCC(=O)OC(CCCCCC)CCCCCC [compound 146],0.43
5,CCCCCCCOCC(=O)N(CCN(C)C)C(CCCCCCCCC(=O)OC(CCCCCC)CCCCCC)CCCCCCCCC(=O)OC(CCCCCC)CCCCCC [compound 147],1.99
6,CCCCCCCCOCC(=O)N(CCN(C)C)C(CCCCCCCCC(=O)OC(CCCCCC)CCCCCC)CCCCCCCCC(=O)OC(CCCCCC)CCCCCC [compound 148],2.11
7,CCCCCCC(CCCCCC)OC(=O)CCCCCCCCC(CCCCCCCCC(=O)OC(CCCCCC)CCCCCC)N(CCN(C)C)C(=O)CCOCCCC [compound 149],1.95
8,CCCCCCC(CCCCCC)OC(=O)CCCCCCCCC(CCCCCCCCC(=O)OC(CCCCCC)CCCCCC)N(CCN(C)C)C(=O)CCOCCCCC [compound 150],0.97
9,CCCCCCOCCC(=O)N(CCN(C)C)C(CCCCCCCCC(=O)OC(CCCCCC)CCCCCC)CCCCCCCCC(=O)OC(CCCCCC)CCCCCC [compound 151],0.50
10,CCCCCCOCCCC(=O)N(CCN(C)C)C(CCCCCCCCC(=O)OC(CCCCCC)CCCCCC)CCCCCCCCC(=O)OC(CCCCCC)CCCCCC [compound 156],0.67
